Entries after “also recorded” stand apart in the source; their conditions may differ. Where two headings read alike, the source gives them in different places.
Tests used:
[1] = system: rat chronic constrictive injury model of neuropathic pain; assay: Neuropathic pain studies in rats (thermal hyperalgesia, withdrawal latency); type: in vivo; conditions: for alleviation of thermal hyperalgesia: 45-60 min post-dose; for time course of analgesic effect: tested 1, 2 and 4 h after dosing
Method: This study was performed as previously described (Vornov, et al., 2013). In brief, male Sprague-Dawley rats (200-250 g) were anesthetized with halothane. The common sciatic nerve on one hind limb was exposed by separating the biceps femoris from the gluteus superficialis. The nerve was subsequently isolated from the surrounding tissue and four ligatures (4.0 chromic gut) were tied loosely around it with about 1-mm spacing. On the other hind limb of the rat, the nerve was similarly isolated but no ligatures were placed, (sham surgery). Thermal pain sensitivity was evaluated using a plantar test apparatus according to previous methods (Hargreaves, et al., 1988). In brief, this involved applying a constant infrared stimulus to the plantar surface of the hind paw using a Basile Plantar apparatus (Ugo Basile, Vaarese, Italy). Withdrawal latency was measured as the time taken for the rat to withdraw its paw from the heat source to the nearest 0.1 s. The “difference score” was calculated by subtracting the average latency of the non-ligated versus ligated side. Animals were habituated to the test chambers (clear plastic compartment maintained in a quiet room) for several hours over 3-4 days, prior to any measurement. Baseline hyperalgesia was recorded 10-12 days post-surgery after the habituation. On test day, each animal received either fospropofol (50, 75 or 100 mg/kg) or vehicle (distilled water) via oral gavage in a volume of 2 mL/kg in a randomized and blinded fashion. Withdrawal latency measurements were then recorded five times for both the operated and sham hind paws of each rat starting from 45 to 60 min post dose. The final latency measurement represents a mean of the last four out of a total of five responses, each being taken at least 5 min apart on the same paw. The difference in response latency for each rat for each leg was calculated and used to determine the mean latency difference response time for each group.

rats = assay: Sedative studies in rats (0-4 sedation score); type: in vivo, rat
Method: The relative potency of fospropofol given via different administration routes was investigated in rats, using sedation as an end point. Intravenous fospropofol doses of 5-40 mg/kg were chosen based on previous studies (Schywalsky, et al., 2003). Based on expected lower oral bioavailability, doses of 100-400 mg/kg were chosen for the PO and ID studies. Following administration of fospropofol, two experimental observers blinded to the treatment, graded the behavior of the rats (n=2-3 per experimental group) every 5 min for a total of 120 min after administration. […] Scores were averaged across treatment groups per time point.

[2] = IV lipid emulsion, humans; cited from earlier work
[3] = IV lipid emulsion, animals; cited from earlier work
patients = conditions: anesthetic induction doses; cited from earlier work
[4] = rat, oral propofol; cited from earlier work

In the case of `CC(C)c1cccc(C(C)C)c1OCOP(=O)(O)O` [fospropofol], the “alleviation of thermal hyperalgesia” value ([1]; 75 mg/kg PO) is reported as “active in alleviating thermal hyperalgesia; also recorded: effective in reducing hyperalgesia”, the “time course of analgesic effect” value ([1]; 75 mg/kg PO) is reported as “losing activity by 2 h” and the “time course of analgesic effect” value ([1]; 75 mg/kg PO, listed as Fospropofol) is reported as “effective only when tested at 1 h”. For the same compound, the “alleviation of thermal hyperalgesia” value ([1]; 100 mg/kg PO) was “active in alleviating thermal hyperalgesia; also recorded: effective in reducing hyperalgesia”, the “absolute latency of the ligated side vs vehicle” value ([1]; 1 hour after oral fospropofol) was “dose dependent increase” and the “withdrawal latency on sham (non-ligated) side vs vehicle” value ([1]; PO fospropofol) was “no change in latencies; also recorded: did not change”. For the same compound, the “dose inducing full sedation (average score 3.5 or higher)” value (shortened to “dose inducing full sedation”) (rats; ID) was 50 mg/kg, the “onset of sedation after administration” value (rats; ID) was at most 5 min and the “dose inducing full sedation” value (rats; IV) was 40 mg/kg. The “onset of sedative effects” value (rats; IV 10-40 mg/kg) was at most 1 min, the “sedative effects abated after infusion” value (rats; IV 10-40 mg/kg) was at most 30 min and the “dose inducing full sedation” value (rats; PO) was 300 to 400 mg/kg. For the same compound, the “onset of sedated behavior after dosing” value (rats; PO) was 5 to 10 min, the degree of sedation (rats; PO 100-200 mg/kg) was “mild to moderate sedation” and the duration of sedation (rats; PO 100-200 mg/kg) was 1 to 2 h. The “duration of loss of consciousness” value (rats; PO 300 and 400 mg/kg) was at most 1 h.

In the case of `CC(C)c1cccc(C(C)C)c1O` [propofol, 2,6-diisopropylphenol], the “extraction by the liver” value [2] is listed as 80%, the “extraction by the liver” value [3] is listed as 80% and the “patients with respiratory consequences (reduction in tidal volume, apnea)” value (patients) is listed as “up to 83%”. The bioavailability of propofol [4] was 10%.

— US11331271B2, “Buccal, sublingual and intranasal delivery of fospropofol” (The Johns Hopkins University, priority 2016, dated 2022)
